Measurements published in ChEMBL document CHEMBL3991601, “The target landscape of clinical kinase drugs” (Science, 2017).
Active and inactive are the calls of the source.

What was measured:
[1] = biological target: T1, Cyclin-dependent kinase-like 5 (Homo sapiens, UniProt O76039)
T1 sequence (O76039 whole entry): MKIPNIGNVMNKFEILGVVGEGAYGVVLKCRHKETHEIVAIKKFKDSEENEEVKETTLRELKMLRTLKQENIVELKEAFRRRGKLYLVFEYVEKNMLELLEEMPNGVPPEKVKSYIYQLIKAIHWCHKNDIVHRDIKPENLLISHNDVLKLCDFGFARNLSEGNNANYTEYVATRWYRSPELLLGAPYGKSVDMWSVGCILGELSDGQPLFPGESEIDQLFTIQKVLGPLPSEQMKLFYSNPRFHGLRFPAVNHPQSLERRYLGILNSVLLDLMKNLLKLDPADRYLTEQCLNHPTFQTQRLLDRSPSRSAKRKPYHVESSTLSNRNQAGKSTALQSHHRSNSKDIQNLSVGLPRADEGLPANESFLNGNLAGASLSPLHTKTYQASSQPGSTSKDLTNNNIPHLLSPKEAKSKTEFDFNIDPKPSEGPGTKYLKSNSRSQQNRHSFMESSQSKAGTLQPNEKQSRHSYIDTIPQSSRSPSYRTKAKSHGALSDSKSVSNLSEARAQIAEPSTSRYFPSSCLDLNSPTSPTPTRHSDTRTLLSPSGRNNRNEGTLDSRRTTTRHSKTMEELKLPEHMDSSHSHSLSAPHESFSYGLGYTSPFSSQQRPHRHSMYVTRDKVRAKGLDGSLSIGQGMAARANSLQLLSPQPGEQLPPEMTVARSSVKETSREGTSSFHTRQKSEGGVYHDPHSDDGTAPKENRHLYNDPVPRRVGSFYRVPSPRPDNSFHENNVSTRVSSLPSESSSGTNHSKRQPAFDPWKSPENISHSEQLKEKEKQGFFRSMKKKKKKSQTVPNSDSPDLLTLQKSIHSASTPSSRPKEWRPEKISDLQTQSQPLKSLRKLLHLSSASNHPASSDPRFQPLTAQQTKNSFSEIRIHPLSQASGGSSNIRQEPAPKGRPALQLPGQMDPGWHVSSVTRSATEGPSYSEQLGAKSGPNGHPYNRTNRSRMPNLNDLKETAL

[2] = biological target: T2, Receptor-type tyrosine-protein kinase FLT3 (Homo sapiens, UniProt P36888)
T2 sequence (P36888 whole entry): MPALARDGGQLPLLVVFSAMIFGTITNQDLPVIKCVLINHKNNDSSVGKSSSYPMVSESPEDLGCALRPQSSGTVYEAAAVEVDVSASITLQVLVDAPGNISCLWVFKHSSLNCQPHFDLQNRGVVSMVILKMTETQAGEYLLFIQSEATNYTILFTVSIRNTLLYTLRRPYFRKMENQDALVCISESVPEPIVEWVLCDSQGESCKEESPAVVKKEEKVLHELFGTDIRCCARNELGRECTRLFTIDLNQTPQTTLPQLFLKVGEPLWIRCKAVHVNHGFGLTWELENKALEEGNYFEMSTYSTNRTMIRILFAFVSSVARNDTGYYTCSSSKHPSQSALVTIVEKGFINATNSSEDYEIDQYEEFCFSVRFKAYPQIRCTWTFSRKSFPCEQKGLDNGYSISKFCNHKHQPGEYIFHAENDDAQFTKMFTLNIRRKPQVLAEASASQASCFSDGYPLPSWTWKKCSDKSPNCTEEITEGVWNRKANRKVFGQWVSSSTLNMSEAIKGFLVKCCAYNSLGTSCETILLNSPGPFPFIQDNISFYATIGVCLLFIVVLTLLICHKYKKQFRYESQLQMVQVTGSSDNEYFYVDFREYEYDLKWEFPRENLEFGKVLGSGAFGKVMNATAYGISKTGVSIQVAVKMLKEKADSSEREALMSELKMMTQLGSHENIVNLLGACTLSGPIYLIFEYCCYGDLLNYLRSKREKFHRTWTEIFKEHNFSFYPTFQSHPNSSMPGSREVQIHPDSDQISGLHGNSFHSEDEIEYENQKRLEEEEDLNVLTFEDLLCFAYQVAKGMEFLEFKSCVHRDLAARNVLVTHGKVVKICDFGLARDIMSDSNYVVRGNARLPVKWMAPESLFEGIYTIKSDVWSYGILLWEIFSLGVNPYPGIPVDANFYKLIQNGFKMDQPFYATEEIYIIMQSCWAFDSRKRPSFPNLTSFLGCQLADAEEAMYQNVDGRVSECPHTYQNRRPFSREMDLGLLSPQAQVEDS

[3] = biological target: High affinity nerve growth factor receptor (Homo sapiens, UniProt P04629)
[4] = biological target: PAS domain-containing serine/threonine-protein kinase (Homo sapiens, UniProt Q96RG2)
[5] = biological target: Membrane-associated progesterone receptor component 1 (Homo sapiens, UniProt O00264)
[6] = biological target: T3, Protein kinase C zeta type (Homo sapiens, UniProt Q05513)
T3 sequence (Q05513 whole entry): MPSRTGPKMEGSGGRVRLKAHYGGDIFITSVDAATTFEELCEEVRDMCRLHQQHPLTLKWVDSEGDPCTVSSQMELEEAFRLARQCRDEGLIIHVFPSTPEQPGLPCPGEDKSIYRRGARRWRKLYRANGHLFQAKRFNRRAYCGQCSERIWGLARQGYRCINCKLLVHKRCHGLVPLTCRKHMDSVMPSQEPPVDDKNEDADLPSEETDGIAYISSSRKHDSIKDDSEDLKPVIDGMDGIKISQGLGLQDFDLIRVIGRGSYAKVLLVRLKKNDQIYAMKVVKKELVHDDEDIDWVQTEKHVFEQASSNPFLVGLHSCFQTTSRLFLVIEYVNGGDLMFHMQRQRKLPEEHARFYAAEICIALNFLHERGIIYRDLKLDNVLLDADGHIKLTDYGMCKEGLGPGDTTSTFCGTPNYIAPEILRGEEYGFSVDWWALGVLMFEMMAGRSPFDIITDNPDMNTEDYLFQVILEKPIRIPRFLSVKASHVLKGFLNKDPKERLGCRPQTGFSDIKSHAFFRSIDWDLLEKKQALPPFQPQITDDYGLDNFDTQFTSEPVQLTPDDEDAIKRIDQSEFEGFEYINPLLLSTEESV

[7] = biological target: Rho-associated protein kinase 1 (Homo sapiens, UniProt Q13464)
[8] = biological target: Dual specificity testis-specific protein kinase 2 (Homo sapiens, UniProt Q96S53)
Myosin-10 = Myosin-10 (Homo sapiens, UniProt P35580)
Further: in the data inactive means no Kd found up to 30 µM.

Sequence of High affinity nerve growth factor receptor (P04629 whole entry, the tested form may be a part): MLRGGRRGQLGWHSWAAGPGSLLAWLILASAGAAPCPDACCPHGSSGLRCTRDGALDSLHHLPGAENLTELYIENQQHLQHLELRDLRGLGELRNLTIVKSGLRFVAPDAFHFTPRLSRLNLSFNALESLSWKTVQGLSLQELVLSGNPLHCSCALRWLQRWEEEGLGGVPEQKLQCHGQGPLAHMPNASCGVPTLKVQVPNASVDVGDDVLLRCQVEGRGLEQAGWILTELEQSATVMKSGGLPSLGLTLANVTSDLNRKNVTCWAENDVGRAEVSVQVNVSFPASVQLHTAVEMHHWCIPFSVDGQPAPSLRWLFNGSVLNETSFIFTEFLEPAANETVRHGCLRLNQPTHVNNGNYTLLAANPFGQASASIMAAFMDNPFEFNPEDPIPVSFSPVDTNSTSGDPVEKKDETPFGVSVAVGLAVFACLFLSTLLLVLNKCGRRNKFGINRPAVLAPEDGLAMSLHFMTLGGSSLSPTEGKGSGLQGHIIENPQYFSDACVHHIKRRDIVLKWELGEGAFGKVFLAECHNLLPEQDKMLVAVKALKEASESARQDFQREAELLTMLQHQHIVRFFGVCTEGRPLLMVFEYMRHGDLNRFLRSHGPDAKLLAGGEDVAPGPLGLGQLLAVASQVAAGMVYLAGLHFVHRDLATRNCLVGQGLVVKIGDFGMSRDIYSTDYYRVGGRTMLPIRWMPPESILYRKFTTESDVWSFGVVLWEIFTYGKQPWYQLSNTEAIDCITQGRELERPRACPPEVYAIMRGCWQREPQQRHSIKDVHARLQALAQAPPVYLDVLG
Sequence of Myosin-10 (P35580 whole entry): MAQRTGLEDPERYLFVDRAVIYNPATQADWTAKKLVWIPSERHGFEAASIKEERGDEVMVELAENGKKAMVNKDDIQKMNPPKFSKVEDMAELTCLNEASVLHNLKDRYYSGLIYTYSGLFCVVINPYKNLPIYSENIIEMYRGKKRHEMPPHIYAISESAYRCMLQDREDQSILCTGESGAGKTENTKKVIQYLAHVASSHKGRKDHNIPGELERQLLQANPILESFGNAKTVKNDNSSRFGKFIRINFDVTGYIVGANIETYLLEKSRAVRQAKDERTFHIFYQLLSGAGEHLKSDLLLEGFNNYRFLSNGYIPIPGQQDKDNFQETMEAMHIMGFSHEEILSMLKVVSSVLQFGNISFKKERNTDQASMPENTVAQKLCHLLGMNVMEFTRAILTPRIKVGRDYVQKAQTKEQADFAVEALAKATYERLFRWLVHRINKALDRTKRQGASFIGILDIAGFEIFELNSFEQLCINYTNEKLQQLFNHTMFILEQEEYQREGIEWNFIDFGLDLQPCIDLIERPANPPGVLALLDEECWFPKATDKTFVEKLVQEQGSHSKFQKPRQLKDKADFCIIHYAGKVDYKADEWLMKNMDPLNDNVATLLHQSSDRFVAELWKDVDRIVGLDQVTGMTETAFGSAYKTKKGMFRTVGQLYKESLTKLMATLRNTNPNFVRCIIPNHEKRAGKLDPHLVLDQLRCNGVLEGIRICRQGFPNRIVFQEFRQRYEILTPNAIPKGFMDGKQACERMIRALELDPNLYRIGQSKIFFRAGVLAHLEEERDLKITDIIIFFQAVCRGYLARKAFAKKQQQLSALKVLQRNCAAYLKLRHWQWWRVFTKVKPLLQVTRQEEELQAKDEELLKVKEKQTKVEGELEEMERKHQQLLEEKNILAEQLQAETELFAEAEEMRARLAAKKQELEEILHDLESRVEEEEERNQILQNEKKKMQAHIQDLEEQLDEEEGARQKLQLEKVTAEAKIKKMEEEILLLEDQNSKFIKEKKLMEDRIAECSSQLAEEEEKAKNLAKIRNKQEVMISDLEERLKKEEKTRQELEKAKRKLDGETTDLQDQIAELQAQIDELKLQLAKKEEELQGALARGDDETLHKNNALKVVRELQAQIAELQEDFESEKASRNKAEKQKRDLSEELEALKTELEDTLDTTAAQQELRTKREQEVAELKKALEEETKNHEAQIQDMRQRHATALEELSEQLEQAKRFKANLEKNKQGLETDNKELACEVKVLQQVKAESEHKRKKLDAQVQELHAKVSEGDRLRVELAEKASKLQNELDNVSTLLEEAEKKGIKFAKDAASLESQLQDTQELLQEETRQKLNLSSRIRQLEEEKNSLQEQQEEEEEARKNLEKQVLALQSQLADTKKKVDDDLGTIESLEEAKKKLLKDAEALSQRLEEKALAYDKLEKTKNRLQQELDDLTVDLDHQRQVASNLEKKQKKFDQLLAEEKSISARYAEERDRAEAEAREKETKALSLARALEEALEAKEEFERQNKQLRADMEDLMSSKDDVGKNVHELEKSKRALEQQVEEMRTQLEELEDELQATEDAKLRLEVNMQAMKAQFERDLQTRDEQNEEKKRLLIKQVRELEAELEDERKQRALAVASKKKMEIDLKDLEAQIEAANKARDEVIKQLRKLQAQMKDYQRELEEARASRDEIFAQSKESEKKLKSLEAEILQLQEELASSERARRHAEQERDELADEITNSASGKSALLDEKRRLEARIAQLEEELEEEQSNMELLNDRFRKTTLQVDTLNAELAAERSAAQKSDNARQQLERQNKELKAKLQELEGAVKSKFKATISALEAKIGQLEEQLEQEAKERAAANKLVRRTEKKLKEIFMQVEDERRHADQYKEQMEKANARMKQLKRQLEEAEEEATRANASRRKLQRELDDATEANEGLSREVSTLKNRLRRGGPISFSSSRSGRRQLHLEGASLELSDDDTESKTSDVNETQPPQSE
Sequence of Rho-associated protein kinase 1 (Q13464 whole entry): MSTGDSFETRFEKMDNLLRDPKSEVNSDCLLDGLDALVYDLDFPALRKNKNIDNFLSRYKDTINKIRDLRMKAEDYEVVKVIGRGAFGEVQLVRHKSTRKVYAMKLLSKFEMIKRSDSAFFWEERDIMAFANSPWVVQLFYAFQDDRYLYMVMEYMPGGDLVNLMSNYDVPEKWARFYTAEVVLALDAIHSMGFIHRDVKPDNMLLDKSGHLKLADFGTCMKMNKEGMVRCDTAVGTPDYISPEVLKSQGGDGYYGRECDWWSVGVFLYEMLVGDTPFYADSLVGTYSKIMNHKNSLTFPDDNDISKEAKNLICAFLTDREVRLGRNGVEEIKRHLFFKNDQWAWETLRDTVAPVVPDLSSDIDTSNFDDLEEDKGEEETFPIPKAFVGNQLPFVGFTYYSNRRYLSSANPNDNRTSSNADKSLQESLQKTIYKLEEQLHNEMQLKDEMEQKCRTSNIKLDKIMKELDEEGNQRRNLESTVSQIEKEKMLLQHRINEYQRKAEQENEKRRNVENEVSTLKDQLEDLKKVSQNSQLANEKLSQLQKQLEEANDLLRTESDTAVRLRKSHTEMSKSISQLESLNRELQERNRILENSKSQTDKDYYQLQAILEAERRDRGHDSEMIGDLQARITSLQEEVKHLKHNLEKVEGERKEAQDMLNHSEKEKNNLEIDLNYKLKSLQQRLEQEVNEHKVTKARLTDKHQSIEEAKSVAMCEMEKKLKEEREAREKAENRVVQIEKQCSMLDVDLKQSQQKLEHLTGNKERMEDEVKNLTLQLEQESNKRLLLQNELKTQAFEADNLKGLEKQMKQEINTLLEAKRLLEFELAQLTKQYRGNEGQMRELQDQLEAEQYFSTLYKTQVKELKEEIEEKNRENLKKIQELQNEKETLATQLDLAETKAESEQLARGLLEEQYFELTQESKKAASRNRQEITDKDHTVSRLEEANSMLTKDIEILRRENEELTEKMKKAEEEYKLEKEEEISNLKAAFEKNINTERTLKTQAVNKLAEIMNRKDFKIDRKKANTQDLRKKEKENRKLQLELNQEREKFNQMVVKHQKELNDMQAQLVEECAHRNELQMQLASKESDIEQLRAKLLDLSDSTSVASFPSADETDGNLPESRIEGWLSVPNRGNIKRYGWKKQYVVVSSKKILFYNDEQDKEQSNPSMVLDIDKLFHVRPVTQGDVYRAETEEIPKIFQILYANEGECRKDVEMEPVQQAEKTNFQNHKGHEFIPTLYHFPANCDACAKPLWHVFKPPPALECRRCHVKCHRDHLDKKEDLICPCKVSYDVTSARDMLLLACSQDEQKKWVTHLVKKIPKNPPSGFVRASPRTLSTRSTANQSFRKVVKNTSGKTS
Sequence of Dual specificity testis-specific protein kinase 2 (Q96S53 whole entry): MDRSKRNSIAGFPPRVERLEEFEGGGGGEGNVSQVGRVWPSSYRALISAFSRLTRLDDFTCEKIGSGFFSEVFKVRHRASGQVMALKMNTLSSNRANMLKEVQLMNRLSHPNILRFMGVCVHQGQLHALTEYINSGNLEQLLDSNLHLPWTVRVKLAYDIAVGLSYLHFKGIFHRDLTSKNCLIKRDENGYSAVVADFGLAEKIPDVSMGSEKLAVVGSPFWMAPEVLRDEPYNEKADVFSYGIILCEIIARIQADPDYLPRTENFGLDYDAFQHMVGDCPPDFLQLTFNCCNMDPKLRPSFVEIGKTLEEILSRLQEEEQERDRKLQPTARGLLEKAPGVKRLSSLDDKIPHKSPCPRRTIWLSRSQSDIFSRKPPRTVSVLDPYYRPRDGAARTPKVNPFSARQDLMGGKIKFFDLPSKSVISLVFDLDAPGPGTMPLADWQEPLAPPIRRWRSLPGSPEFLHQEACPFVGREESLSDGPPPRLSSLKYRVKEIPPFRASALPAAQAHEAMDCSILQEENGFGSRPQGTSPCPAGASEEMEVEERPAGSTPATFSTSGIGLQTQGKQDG
Sequence of Membrane-associated progesterone receptor component 1 (O00264 whole entry): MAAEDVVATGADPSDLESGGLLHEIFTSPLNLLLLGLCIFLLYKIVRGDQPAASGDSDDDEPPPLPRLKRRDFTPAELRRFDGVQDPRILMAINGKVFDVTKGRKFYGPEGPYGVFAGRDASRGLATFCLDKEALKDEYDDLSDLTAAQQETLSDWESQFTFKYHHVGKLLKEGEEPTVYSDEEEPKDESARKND

Row | Kd [1] | Kd [2] | Kd [3] | Kd [4] | Kd [5] | Kd [6] | Kd [7] | Kd [8] | Kd (Myosin-10) | Compound
1 | > 30 µM (inactive) | > 30 µM (inactive) | > 30 µM (inactive) | > 30 µM (inactive) | > 30 µM (inactive) | > 30 µM (inactive) | > 30 µM (inactive) | > 30 µM (inactive) |  | NC(=O)c1ccc(N(C(N)=O)c2c(F)cccc2F)nc1-c1ccc(F)cc1F [VX-702]
2 | > 30 µM (inactive) | 1.68 µM (active) | > 30 µM (inactive) | > 30 µM (inactive) | > 30 µM (inactive) | > 30 µM (inactive) | > 30 µM (inactive) | > 30 µM (inactive) | > 30 µM (inactive) | Cc1cc(Nc2nc(N[C@@H](C)c3ncc(F)cn3)ncc2Cl)n[nH]1 [AZD-1480]
3 | > 30 µM (inactive) | > 30 µM (inactive) | > 30 µM (inactive) | > 30 µM (inactive) | > 30 µM (inactive) | > 30 µM (inactive) | > 30 µM (inactive) | > 30 µM (inactive) | > 30 µM (inactive) | O=C(Nc1ccc(OC(F)(F)F)cc1)c1sccc1NCc1ccnc2ccccc12 [OSI-930]

More lines, now with the values behind:

Row | Compound | Kd [1] | Kd [2] | Kd [3] | Kd [4] | Kd [5] | Kd [6] | Kd [7] | Kd [8] | Kd (Myosin-10)
4 | Cn1cc(-c2[nH]c3cc(NC(=O)[C@H](N)C4CCCCC4)cc4c3c2C=NNC4=O)cn1 | > 30 µM (inactive) | 0.05 µM (active) | > 30 µM (inactive) | > 30 µM (inactive) | > 30 µM (inactive) | > 30 µM (inactive) | > 30 µM (inactive) | > 30 µM (inactive) | > 30 µM (inactive)
5 | CC1(COc2ccc3c(c2)ncn3-c2ccc3cccc(N4CCC(N)CC4)c3n2)COC1 [CRENOLANIB] | > 30 µM (inactive) |  | 0.008 µM (active) | > 30 µM (inactive) |  | > 30 µM (inactive) | > 30 µM (inactive) | > 30 µM (inactive) | > 30 µM (inactive)
6 | C=CCn1c(=O)c2cnc(Nc3ccc(N4CCN(C)CC4)cc3)nc2n1-c1cccc(C(C)(C)O)n1 [ADAVOSERTIB] | > 30 µM (inactive) |  |  | > 30 µM (inactive) | > 30 µM (inactive) | > 30 µM (inactive) |  | > 30 µM (inactive) | 
7 | Cc1cc(-c2cc(OC(=O)c3ccccc3)ccc2Cl)cc2nnc(Nc3ccc(OCCN4CCCC4)cc3)nc12 [TG100-801] | > 30 µM (inactive) | > 30 µM (inactive) | > 30 µM (inactive) | > 30 µM (inactive) |  | > 30 µM (inactive) | > 30 µM (inactive) | > 30 µM (inactive) | > 30 µM (inactive)
8 | Cn1cnc2c(F)c(Nc3ccc(Br)cc3Cl)c(C(=O)NOCCO)cc21 [SELUMETINIB] |  |  |  | > 30 µM (inactive) | > 30 µM (inactive) | > 30 µM (inactive) |  | > 30 µM (inactive) | > 30 µM (inactive)
9 | CCc1cc2c(cc1N1CCC(N3CCOCC3)CC1)C(C)(C)c1[nH]c3cc(C#N)ccc3c1C2=O [ALECTINIB] | > 30 µM (inactive) | > 30 µM (inactive) | > 30 µM (inactive) | > 30 µM (inactive) |  | > 30 µM (inactive) | > 30 µM (inactive) | > 30 µM (inactive) | > 30 µM (inactive)
10 | COc1cc(Nc2ncc(F)c(Nc3ccc4c(n3)N(COP(=O)(O)O)C(=O)C(C)(C)O4)n2)cc(OC)c1OC [FOSTAMATINIB] | > 30 µM (inactive) | 0.843 µM (active) | > 30 µM (inactive) | > 30 µM (inactive) | > 30 µM (inactive) | > 30 µM (inactive) | > 30 µM (inactive) | > 30 µM (inactive) | > 30 µM (inactive)
11 | O=C(NC[C@H](O)CO)c1ccncc1Nc1ccc(I)cc1F [PIMASERTIB] | > 30 µM (inactive) | > 30 µM (inactive) | > 30 µM (inactive) | > 30 µM (inactive) | > 30 µM (inactive) | 10.4 µM | > 30 µM (inactive) | > 30 µM (inactive) | > 30 µM (inactive)
12 | C#Cc1cccc(Nc2ncnc3cc4c(cc23)OCCOCCOCCO4)c1 [ICOTINIB] | > 30 µM (inactive) | > 30 µM (inactive) | > 30 µM (inactive) | > 30 µM (inactive) | > 30 µM (inactive) | > 30 µM (inactive) | > 30 µM (inactive) | > 30 µM (inactive) | > 30 µM (inactive)
